Measurements taken from patent US20210386069A1 (priority 2018, published 2021).

assay: log P by HPLC on a reversed-phase column (C 18), EEC Directive 79/831 Annex V.A8; assay type: physicochemical; details: HPLC reversed-phase C 18, 40° C., 0.1% aqueous formic acid and acetonitrile, linear gradient 10% to 95% acetonitrile
Experimental: In table 1, the log P values were determined in accordance with EEC Directive 79/831 Annex V.A8 by HPLC (High Performance Liquid Chromatography) on a reversed-phase column (C 18), using the method described below:
temperature: 40° C.; mobile phases: 0.1% aqueous formic acid and acetonitrile; linear gradient from 10% acetonitrile to 95% acetonitrile;
If more than one Log P value is available within the same method, all the values are given and separated by “;”.
Calibration was carried out using unbranched alkan-2-ones (comprising 3 to 16 carbon atoms) with known log P values (determination of the log P values by the retention times using linear interpolation between two successive alkanones). lambda-max-values were determined using UV-spectra from 200 nm to 400 nm and the peak values of the chromatographic signals.

| SMILES | logP |
| --- | --- |
| COc1ccc(-c2ccccc2Nc2cc3ccc(F)c(F)c3nc2C)c(OC)n1 [I.108] | 4.62 |
| CCCc1ncccc1-c1c(F)cccc1Nc1cc2ccc(F)c(F)c2nc1C [I.109] | 2.62 |
| CCCc1cnccc1-c1c(F)cccc1Nc1cc2ccc(F)c(F)c2nc1C [I.110] | 2.89 |
| CCCc1ccncc1-c1c(F)cccc1Nc1cc2ccc(F)c(F)c2nc1C [I.111] | 2.75 |
| CCOc1ccc(-c2c(F)cccc2Nc2cc3ccc(F)c(F)c3nc2C)cn1 [I.112] | 4.09 |
| CCOc1ncccc1-c1c(F)cccc1Nc1cc2ccc(F)c(F)c2nc1C [I.113] | 4.13 |
| CSc1ccc(-c2c(F)cccc2Nc2cc3ccc(F)c(F)c3nc2C)cn1 [I.114] | 3.91 |
| CSc1ncccc1-c1c(F)cccc1Nc1cc2ccc(F)c(F)c2nc1C [I.115] | 3.98 |
| COc1nccc(-c2ccccc2Nc2cc3ccc(F)c(F)c3nc2C)c1Cl [I.116] | 4.09 |
| COc1c(-c2c(F)cccc2Nc2cc3ccc(F)c(F)c3nc2C)ccnc1F [I.117] | 3.75 |
| Cc1cnc(Cl)c(-c2c(F)cccc2Nc2cc3ccc(F)c(F)c3nc2C)c1 [I.118] | 3.75 |
| Cc1cc(-c2c(F)cccc2Nc2cc3ccc(F)c(F)c3nc2C)cnc1Cl [I.119] | 3.98 |
| Cc1nc2c(F)c(F)ccc2cc1Nc1cccc(F)c1-c1ccc(Cl)nc1C [I.120] | 4.01 |
| Cc1cc(Cl)ncc1-c1c(F)cccc1Nc1cc2ccc(F)c(F)c2nc1C [I.121] | 4.01 |
| Cc1nc2c(F)c(F)ccc2cc1Nc1ccccc1-c1cncc(C(F)(F)F)c1 [I.122] | 3.65 |
| Cc1nc2c(F)c(F)ccc2cc1Nc1ccccc1-c1ccc(C(F)(F)F)nc1 [I.123] | 3.91 |
| Cc1nc2c(F)c(F)ccc2cc1Nc1ccccc1-c1cc(Cl)cnc1Cl [I.124] | 4.13 |
| Cc1nc2c(F)c(F)ccc2cc1Nc1cccc(F)c1-c1cc(Cl)ncc1F [I.126] | 3.98 |
| Cc1nc2c(F)c(F)ccc2cc1Nc1cccc(F)c1-c1cc(F)cnc1Cl [I.127] | 3.87 |
| Cc1nc2c(F)c(F)ccc2cc1Nc1cccc(F)c1-c1cc(Cl)cnc1F [I.128] | 4.05 |
| Cc1nc2c(F)c(F)ccc2cc1Nc1cccc(F)c1-c1ccnc(F)c1Cl [I.129] | 3.98 |
| Cc1nc2c(F)c(F)ccc2cc1Nc1cccc(F)c1-c1ccc(OC(C)C)nc1 [I.130] | 4.47 |
| COc1ccc(-c2c(F)cccc2Nc2cc3ccc(F)c(F)c3nc2C)c(OC)n1 [I.131] | 4.43 |
| COc1nccc(-c2c(F)cccc2Nc2cc3ccc(F)c(F)c3nc2C)c1Cl [I.132] | 4.09 |
| Cc1nc2c(F)c(F)ccc2cc1Nc1cccc(F)c1-c1cncc(C(F)(F)F)c1 [I.133] | 3.75 |
| Cc1nc2c(F)c(F)ccc2cc1Nc1cccc(F)c1-c1ccc(C(F)(F)F)nc1 [I.134] | 3.94 |
| COc1cc(-c2ccccc2Nc2cc3ccc(F)c(F)c3nc2C)c(Br)cn1 [I.135] | 4.36 |
| Cc1nc2c(F)c(F)ccc2cc1Nc1cccc(F)c1-c1cc(F)cnc1F [I.136] | 3.71 |
| Cc1nc2c(F)c(F)ccc2cc1Cc1cccnc1-c1ccnc(F)c1 [I.137] | 2.52 |
| Fc1cc(-c2cscc2Cc2cnc3c(F)cccc3c2)ccn1 [I.139] | 3.11 |

same assay, conditions: reversed-phase HPLC column (C 18); preparation examples; log P as defined in table 1 (HPLC, 0.1% aqueous formic acid/acetonitrile)

| SMILES | chromatographic logP |
| --- | --- |
| Cc1nc2c(F)c(F)ccc2cc1Cc1cscc1-c1ccnc(F)c1 [I.138, 7,8-difluoro-3-{[4-(2-fluoropyridin-4-yl)-3-thienyl]methyl}-2-methylquinoline] | 3.64 |
| Cc1nc2c(F)c(F)ccc2cc1Nc1cccc(F)c1Br [N-(2-bromo-3-fluorophenyl)-7,8-difluoro-2-methylquinolin-3-amine] | 3.28 |
